The target in experiment [1] is Muscarinic acetylcholine receptor M3 (Homo sapiens) (UniProt P20309). The experiment in a line: Inhibition of M3 receptor (unknown origin). The following applies: concentration not given here.
Experiment [2] addresses 5-hydroxytryptamine receptor 7 (Homo sapiens, UniProt P34969). Briefly: Binding affinity to 5HT7 receptor (unknown origin) assessed as inhibition constant.
Experiment [3] deals with Histamine H3 receptor (Homo sapiens) (UniProt Q9Y5N1). Briefly: Inhibition of H3 receptor (unknown origin). The conditions noted are these: concentration not given here.
Sequence of Histamine H3 receptor (Homo sapiens) (Q9Y5N1 whole entry): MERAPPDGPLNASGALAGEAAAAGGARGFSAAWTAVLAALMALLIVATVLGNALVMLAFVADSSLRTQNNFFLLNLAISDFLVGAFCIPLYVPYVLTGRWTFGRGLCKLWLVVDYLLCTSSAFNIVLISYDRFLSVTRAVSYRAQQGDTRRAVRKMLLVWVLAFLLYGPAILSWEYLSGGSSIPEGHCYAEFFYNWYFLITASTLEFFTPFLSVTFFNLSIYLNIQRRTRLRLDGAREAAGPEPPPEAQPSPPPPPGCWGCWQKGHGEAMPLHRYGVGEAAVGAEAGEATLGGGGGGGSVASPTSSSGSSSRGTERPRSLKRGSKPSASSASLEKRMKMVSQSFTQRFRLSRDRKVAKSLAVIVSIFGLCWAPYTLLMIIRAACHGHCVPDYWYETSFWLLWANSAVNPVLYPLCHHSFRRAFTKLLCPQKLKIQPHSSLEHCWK
Experiment [4] addresses D(1B) dopamine receptor (Homo sapiens) (UniProt P21918). The experiment in a line: Inhibition of D5 receptor (unknown origin). The following applies: concentration not given here.
The target of experiment [5] is 5-hydroxytryptamine receptor 1D (Homo sapiens, UniProt P28221). Briefly: Binding affinity to 5HT1D receptor (unknown origin) assessed as inhibition constant.
Sequence of 5-hydroxytryptamine receptor 1D (P28221 whole entry): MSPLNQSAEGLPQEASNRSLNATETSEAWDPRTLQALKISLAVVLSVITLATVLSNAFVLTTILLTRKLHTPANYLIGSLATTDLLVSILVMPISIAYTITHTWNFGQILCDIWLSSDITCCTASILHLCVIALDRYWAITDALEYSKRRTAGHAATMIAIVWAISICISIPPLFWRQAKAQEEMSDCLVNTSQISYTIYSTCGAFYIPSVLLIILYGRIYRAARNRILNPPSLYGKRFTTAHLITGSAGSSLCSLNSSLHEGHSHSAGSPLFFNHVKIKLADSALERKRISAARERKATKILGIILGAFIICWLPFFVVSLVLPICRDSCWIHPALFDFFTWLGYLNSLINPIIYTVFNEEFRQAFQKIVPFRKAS
Experiment [6] has as its target T1, Alpha-1B adrenergic receptor (Homo sapiens) (UniProt P35368).
T1 sequence (whole entry): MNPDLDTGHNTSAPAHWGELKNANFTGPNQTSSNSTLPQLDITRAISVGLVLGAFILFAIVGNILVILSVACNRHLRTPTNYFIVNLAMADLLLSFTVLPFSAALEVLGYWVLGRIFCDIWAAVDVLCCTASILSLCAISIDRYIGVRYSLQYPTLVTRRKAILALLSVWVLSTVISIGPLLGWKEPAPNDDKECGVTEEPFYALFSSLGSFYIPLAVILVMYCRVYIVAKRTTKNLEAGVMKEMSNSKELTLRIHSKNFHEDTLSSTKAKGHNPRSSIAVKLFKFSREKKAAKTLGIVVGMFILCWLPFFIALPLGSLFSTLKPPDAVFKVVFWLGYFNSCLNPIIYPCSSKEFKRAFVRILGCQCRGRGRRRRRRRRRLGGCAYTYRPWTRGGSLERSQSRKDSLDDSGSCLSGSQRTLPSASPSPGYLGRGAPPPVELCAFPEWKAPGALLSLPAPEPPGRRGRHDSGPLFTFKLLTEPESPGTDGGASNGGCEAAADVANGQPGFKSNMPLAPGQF
The experiment in a line: Inhibition of alpha1B receptor (unknown origin). The following applies: concentration not given here.

Experiment [7] concerns the target T2, Muscarinic acetylcholine receptor M1 (Homo sapiens) (UniProt P11229).
T2 sequence (whole entry): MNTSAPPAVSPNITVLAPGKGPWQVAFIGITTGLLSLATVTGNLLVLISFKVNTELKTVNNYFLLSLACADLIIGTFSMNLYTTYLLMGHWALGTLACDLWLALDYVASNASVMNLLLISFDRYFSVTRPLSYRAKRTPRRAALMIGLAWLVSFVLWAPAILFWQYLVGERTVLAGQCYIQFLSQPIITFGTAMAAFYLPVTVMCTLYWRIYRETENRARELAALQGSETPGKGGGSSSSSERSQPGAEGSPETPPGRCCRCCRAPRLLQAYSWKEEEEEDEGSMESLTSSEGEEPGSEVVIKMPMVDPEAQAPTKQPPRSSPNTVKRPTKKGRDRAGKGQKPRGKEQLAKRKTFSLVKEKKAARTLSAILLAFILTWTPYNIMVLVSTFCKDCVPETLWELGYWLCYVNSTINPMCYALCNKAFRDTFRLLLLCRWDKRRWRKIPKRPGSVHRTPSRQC
Briefly: Inhibition of M1 receptor (unknown origin). The conditions noted are these: concentration not given here.

The target in experiment [8] is T3, 5-hydroxytryptamine receptor 2B (Homo sapiens, UniProt P41595). Briefly: Binding affinity to 5HT2B receptor (unknown origin) assessed as inhibition constant.
T3 sequence (P41595 whole entry): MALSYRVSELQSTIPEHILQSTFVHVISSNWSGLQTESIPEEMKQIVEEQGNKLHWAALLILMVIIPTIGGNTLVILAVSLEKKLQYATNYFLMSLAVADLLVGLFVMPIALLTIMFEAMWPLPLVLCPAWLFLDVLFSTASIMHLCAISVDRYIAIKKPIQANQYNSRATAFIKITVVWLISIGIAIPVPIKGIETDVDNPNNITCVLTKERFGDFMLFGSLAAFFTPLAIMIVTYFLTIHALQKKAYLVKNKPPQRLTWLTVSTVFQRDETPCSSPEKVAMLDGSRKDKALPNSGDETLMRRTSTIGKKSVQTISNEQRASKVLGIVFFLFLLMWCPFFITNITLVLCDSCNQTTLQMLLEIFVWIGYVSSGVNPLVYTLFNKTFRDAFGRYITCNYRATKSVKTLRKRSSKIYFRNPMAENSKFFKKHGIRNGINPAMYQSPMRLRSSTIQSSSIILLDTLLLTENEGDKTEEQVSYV
The target of experiment [9] is T3, 5-hydroxytryptamine receptor 2B. Briefly: Agonist activity at human 5HT2B receptor stably expressed in Flp-In-T-REx-293 cells assessed as increase in Gq-mediated calcium flux by Fluo-4 direct dye based FLIPR Tetra assay. The following applies: for pEC50: read-out: EC50. Type of experiment: functional, cell-based. On the technique in general: A change in cytosolic calcium serves as a functional read-out for many receptors and channels.

The target of experiment [10] is 5-hydroxytryptamine receptor 2A (Homo sapiens, UniProt P28223). Briefly: Agonist activity at human 5HT2A receptor stably expressed in Flp-In-T-REx-293 cells assessed as increase in Gq-mediated calcium flux by Fluo-4 direct dye based FLIPR Tetra assay. Type of experiment: functional, cell-based.
Sequence of 5-hydroxytryptamine receptor 2A (P28223 whole entry): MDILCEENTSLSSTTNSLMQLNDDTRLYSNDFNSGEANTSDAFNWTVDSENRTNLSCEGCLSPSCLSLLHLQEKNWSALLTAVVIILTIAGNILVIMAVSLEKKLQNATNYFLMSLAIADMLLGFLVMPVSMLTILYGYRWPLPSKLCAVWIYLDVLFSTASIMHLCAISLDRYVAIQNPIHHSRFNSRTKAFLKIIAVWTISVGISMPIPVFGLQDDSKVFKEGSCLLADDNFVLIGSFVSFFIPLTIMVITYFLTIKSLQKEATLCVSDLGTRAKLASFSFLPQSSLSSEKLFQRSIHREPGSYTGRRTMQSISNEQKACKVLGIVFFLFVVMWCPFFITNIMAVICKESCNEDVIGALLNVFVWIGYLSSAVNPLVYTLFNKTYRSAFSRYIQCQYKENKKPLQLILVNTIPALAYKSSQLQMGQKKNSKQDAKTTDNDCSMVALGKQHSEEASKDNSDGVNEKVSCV
Experiment [11] concerns the target T4, Muscarinic acetylcholine receptor M5 (Homo sapiens) (UniProt P08912).
T4 sequence (whole entry): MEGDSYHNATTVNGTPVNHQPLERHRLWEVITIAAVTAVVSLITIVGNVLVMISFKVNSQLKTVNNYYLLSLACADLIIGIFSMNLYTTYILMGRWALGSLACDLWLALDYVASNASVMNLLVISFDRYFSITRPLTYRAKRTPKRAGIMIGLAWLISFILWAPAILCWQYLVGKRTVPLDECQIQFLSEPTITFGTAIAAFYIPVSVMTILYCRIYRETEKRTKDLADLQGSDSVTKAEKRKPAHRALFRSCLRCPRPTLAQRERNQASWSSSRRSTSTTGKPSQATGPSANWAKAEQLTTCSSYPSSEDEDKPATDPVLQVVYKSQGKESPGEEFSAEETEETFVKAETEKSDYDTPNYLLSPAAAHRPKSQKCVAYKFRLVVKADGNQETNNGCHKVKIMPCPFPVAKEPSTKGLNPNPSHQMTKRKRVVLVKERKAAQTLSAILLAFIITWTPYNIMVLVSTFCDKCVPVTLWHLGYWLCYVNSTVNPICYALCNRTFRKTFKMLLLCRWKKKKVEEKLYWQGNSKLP
The experiment in a line: Inhibition of M5 receptor (unknown origin). The conditions noted are these: concentration not given here.

Experiment [12] concerns the target Sigma intracellular receptor 2 (Homo sapiens, UniProt Q5BJF2). Briefly: Inhibition of sigma 2 receptor (unknown origin). The conditions noted are these: concentration not given here.
For experiment [13], the target named is T5, Alpha-2C adrenergic receptor (Homo sapiens) (UniProt P18825).
T5 sequence (whole entry): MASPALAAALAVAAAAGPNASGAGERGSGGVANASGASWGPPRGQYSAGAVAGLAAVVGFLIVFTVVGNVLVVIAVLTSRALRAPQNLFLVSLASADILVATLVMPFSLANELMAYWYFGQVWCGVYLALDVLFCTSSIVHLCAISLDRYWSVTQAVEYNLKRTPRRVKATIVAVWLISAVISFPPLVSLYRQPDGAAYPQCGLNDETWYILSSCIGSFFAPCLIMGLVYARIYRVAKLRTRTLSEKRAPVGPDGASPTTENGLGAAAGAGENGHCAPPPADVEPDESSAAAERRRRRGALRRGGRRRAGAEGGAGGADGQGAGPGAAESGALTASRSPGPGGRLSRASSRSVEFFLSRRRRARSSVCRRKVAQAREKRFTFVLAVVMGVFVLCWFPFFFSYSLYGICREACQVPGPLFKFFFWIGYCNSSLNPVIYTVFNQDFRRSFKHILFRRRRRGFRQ
The experiment in a line: Inhibition of alpha2c (unknown origin). The following applies: concentration not given here.

pEC50, pKi: −log10 of the molar value. Where only a bound is given, the exact number is not on record here.

Sequence of D(1B) dopamine receptor (Homo sapiens) (P21918 whole entry): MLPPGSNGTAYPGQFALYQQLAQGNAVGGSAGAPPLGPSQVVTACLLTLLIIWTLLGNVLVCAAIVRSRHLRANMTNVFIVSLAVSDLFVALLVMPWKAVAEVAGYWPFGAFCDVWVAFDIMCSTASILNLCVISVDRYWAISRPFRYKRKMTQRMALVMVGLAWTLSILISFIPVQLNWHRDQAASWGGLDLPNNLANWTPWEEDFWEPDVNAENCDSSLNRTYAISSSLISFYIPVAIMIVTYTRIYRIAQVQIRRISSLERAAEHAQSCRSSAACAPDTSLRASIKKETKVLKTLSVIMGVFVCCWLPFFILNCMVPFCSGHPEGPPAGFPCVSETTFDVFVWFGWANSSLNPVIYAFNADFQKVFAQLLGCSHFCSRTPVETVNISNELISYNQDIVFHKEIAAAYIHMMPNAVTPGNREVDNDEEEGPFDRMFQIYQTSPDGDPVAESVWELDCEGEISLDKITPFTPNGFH
Sequence of Muscarinic acetylcholine receptor M3 (Homo sapiens) (P20309 whole entry, looked up): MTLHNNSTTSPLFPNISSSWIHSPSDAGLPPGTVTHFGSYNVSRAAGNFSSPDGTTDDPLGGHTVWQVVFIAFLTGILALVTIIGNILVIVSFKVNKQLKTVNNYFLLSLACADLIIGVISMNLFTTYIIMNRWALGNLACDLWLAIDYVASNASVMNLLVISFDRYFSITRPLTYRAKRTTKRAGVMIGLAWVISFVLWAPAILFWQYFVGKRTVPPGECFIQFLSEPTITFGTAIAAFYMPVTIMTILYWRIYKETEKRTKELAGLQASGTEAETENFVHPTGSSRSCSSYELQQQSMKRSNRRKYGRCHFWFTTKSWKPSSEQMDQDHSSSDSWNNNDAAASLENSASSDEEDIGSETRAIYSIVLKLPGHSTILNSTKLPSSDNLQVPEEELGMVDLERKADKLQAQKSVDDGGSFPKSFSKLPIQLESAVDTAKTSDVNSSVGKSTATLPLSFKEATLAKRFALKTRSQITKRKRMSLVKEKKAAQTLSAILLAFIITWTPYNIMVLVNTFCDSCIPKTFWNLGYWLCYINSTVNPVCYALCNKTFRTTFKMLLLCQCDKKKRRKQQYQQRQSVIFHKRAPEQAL
Sequence of Sigma intracellular receptor 2 (Q5BJF2 whole entry): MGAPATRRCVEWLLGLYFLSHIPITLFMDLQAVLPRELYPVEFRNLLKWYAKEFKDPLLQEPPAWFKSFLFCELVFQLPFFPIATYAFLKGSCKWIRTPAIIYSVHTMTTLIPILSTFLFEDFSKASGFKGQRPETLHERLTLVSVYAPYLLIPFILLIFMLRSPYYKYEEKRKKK
Sequence of 5-hydroxytryptamine receptor 7 (P34969 whole entry): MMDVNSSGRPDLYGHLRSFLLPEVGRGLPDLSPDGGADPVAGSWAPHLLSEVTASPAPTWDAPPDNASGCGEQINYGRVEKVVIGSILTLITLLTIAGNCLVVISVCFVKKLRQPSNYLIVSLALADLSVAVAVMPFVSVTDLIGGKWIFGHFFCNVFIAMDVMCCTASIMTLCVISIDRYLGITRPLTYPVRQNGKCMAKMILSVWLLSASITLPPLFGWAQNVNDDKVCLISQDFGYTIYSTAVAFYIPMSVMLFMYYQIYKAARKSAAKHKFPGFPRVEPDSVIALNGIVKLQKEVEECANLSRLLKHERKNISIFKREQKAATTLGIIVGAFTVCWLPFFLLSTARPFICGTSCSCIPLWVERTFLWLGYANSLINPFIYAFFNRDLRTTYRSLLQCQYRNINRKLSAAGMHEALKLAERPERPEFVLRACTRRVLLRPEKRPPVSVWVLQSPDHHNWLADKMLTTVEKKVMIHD

A word on the inhibition: it is the relative decrease from the control value, in per cent. A high value points to a strong effect. Usually pKi stands for the Ki on a negative log10 scale, so that one unit is a factor of ten. A word on the pEC50: it is the negative decadic logarithm of the EC50, by convention in mol/L. On to `COc1cc(OC)c(C2NCCc3c2[nH]c2ccc(F)cc32)cc1OC` (stereo unspecified), for which the inhibition in [1], in [3], in experiment [4], in [6], in [7] and in [11] was under 50% each time. Further, the pKi is 6.60 in experiment [2], 6.18 in experiment [5] and 7.25 in [8]. Besides, the pEC50 is 8.00 in [9] and 7.41 in experiment [10]. Further, in experiment [9] (read-out: pEC50 (converted)), the EC50 was 11 nM.
As for `COc1cc(OC)c(C2NCCc3c2[nH]c2ccc(Cl)cc32)cc1OC` (stereo unspecified), the inhibition in experiment [12], in [1], in experiment [13], in experiment [3], in experiment [4] and in experiment [6] was under 50% in each case. For the same compound, the inhibition in experiment [7] and in [11] was under 50% each time. For the same compound, the pKi was 8.60 in experiment [2], 7.41 in experiment [5] and 8.53 in experiment [8]. Also, the pEC50 was 9.24 in experiment [9] and 8.77 in [10].
Take `COc1ccc(C2NCCc3c2[nH]c2ccc(F)cc32)c(O)c1` (stereo unspecified): the inhibition in experiment [12], in experiment [1], in experiment [13], in [3], in experiment [4] and in [6] was under 50% throughout. Further, the inhibition in experiment [7] and in experiment [11] was under 50% in each case. In addition, the values for the pKi in experiment [2], in experiment [5] and in experiment [8] were 7.60, 6.96 and 8.35, respectively. Also, the figures for the pEC50 in [9] and in experiment [10] were 8.89 and 8.49, respectively.
Regarding `COc1ccc(C2NCCc3c2[nH]c2ccc(Cl)cc32)c(O)c1` (stereo unspecified), the inhibition in [12], in [1], in experiment [13], in experiment [3], in [4] and in experiment [6] was under 50% in each case. Moreover, the inhibition in [7] and in experiment [11] was under 50% in each case. For the same compound, the figures for the pKi in experiment [2], in experiment [5] and in experiment [8] were 8.10, 7.50 and 8.34, respectively. The results for the negative-log EC50 (pEC50) in experiment [9] and in experiment [10] were 8.51 and 8.08, respectively.

Source of the values: ChEMBL document CHEMBL5131517 (ACS Med Chem Lett, 2022).
